In patent US9625448B2, “Double caged GABA compounds, bis-CNB-GABA” (The Trustees of Princeton University, priority 2014, dated 2017):
Like-named read-outs stand apart in the source and are kept apart here.

Assays:
[1] = tested on: cerebellar molecular layer interneurons; assay: Photolysis-evoked GABAergic currents in cerebellar molecular layer interneurons; type: cell-based
Protocol: The biological properties of our synthetic bis-CNB-GABA were evaluated using whole-cell patch recording from cerebellar molecular layer interneurons.
FIGS. 42A-42E illustrate physiological responses to photolysis of bis-CNB-GABA. FIG. 42A illustrates a cerebellar molecular layer interneuron visualized using Alexa 488 in the patch recording electrode solution. Referring to FIG. 42A, bis-CNB-GABA (0.6 mM) was photolyzed with a 405 nm laser spot in 3 different locations (indicated by 1, 2 and 3). Still referring to FIG. 42A, laser-evoked GABAergic currents are shown on the right panel. Still referring to FIG. 42A, gray traces show individual sweeps and black traces are averages. Still referring to FIG. 42A, the gray sweep at bottom indicates the laser flash (1 ms duration, intensity 5 mW) as recorded using a photodiode. FIG. 42B illustrates bis-CNB-GABA (1.4 mM) was photolyzed with a […] LED at progressively higher flash energies (0.25-1.1 mW, 5-50 ms, 1.25-55 μJ). FIG. 42C illustrates the same experiment as shown in FIG. 42B with Responses to mono-CNB-GABA (50 μM). FIG. 42D illustrates normalized current as a function of relative LED flash energies plotted on a log-log scale. FIG. 42E illustrates laser-evoked whole-cell current recorded in the absence and presence of 3 μM gabazine, a GABA receptor antagonist. Referring to FIG. 42E, a larger flash energy was used in the presence of gabazine.
Referring to FIG. 42A, molecular layer interneurons receive excitatory glutamatergic synapses, as well as inhibitory GABAergic synapses that show a pronounced level of spontaneous activity (gray traces). The effects of bis-CNB-GABA on these synaptic currents were tested.
By contrast, the relationship for mono-O-CNB-GABA was close to linear (log-log slope=1.3±0.1, n=3). For these measurements, evoked currents were normalized to the maximum current observed in the same neuron. […] These power laws are consistent with a process in which each molecule of bis-CNB-GABA must cumulatively undergo two uncaging reactions in order to release an active GABAA agonist.
To test whether bis-CNB-GABA-evoked responses resemble physiological events in their kinetics, we measured the kinetic properties of flash responses. […] This rise time is consistent with the dark reaction time (1.5 ms) for the slower cage, N-mono-CNB-GABA (Wieboldt, R.; Ramesh, D.; Carpenter, B. K; Hess, G. P. Biochemistry, 1994, 33, 1526-1533, which is incorporated herein by reference as if fully set forth). […] These rates approach those of spontaneous events and are among the fastest described for other GABA cages. […]

[2] = Quantum yield of photolysis; type: physicochemical; conditions: 254 nm light
Protocol: Quantum yield was a more difficult characteristic to determine. Most published routes of determining quantum yield rely on exposing the compound to a known amount of light and calculating the percent conversion of caged compound to substrate. However, this often requires laser sources and equipment beyond the scope of available facilities. Therefore, it was necessary to develop a way to assess quantum yield with a more practical method. As an alternative, quantum yield was determined by exposing a compound to light alongside a caged compound of known quantum yield. The percent conversion to product of both can be determined, and quantum yield of the unknown caged compound can be calculated using the known quantum yield of the standard.
This method was employed using single-caged CNB-GABA, with a quantum yield of 0.14 (Matsuzaki et al., 2010 Nature Chemical Biology, 6, 255-257, which is incorporated herein by reference as if fully set forth). Referring to this figure, GABA backbone is shown in light gray.
Equimolar amounts of single-caged GABA and bis-CNB-GABA were stirred in separate cuvettes in pH 7.0 phosphate buffer solution and exposed to 254 nm light for 16.5 minutes. An internal standard (1,2-dimethoxyethane) of known amount was then added to each solution, and the moles of GABA released from each compound was determined by ^1HNMR. The peaks corresponding to GABA as well as those from the internal standard were then identified and integrated. From this, moles of GABA and percent conversion were calculated for both bis-CNB-GABA and mono-CNB-GABA. FIG. 34 illustrates NMR data used to determine quantum yield. Referring to FIG. 34, the […] on the top illustrates bis-CNB-GABA before light exposure. Arrows denote methylene peaks of bis-CNB-GABA. Integrated peaks in each spectrum correspond to di-methoxyethane, used as an internal standard. […]
Quantum yield was determined by uncaging bis-CNB-GABA alongside a caged compound of known quantum yield (mono-CNB-GABA, QY=0.16, from Invitrogen). […]

dentate granule cells = tested on: dentate granule cells; set-up: dose or concentration left out as unconfirmed; conditions: holding potential −80 mV; cited from earlier work
[3] = cited from earlier work

Row | SMILES | rise time of GABA-induced currents upon photolysis ([1]; FIGS. 38A-38D) | 10-90% rise time of flash responses ([1]; responses comparable in size with spontaneous IPSCs, flash 1.0 ms, n=10) | quantum yield ([2]; pH 7.0 phosphate buffer, relative to CNB-GABA (0.14)) | quantum yield at the N-position ([2]; relative to mono-O-CNB-GABA) | quantum yield at the O-position ([2]; relative to mono-O-CNB-GABA) | effect on EPSC evoked by stimulation of the perforant path (dentate granule cells) | known quantum yield (QY) of standard ([3]; from Invitrogen) | quantum yield ([3]; literature values)
1 | O=C(CCCNC(C(=O)O)c1ccccc1[N+](=O)[O-])OC(C(=O)O)c1ccccc1[N+](=O)[O-] (centres unmarked) [bis-CNB-GABA, 2-((4-(Carboxy(2-nitrophenyl)methoxy)-4-oxobutyl)amino)-2-(2-nitrophenyl)acetic acid] | approximately 2 ms | 2.2±0.6 ms | 0.07 | 0.032 | 0.15 | – | – | –
2 | NCCCC(=O)OC(C(=O)O)c1ccccc1[N+](=O)[O-] (centres unmarked) [mono-CNB-GABA] | – | – | – | – | – | did not significantly affect | 0.16 | 0.14
